# Tested on: H3S10 ph near the E2F2 promoter in A549 cells
# Assay: ChIP assay of H3S10 ph near the E2F2 promoter
# Assay type: cell-based
# Details: TZ47-treated A549 cells
# Procedure: A549 cells were treated by different concentrations of TZ47, and then total RNAs and total proteins of cells were extracted to detect the expression of gene E2F2. […] To further verify the above results, A549 cells were treated with TZ47 and extracted for chromatin, and the chromatin and an H3S10 ph-specific antibody were then used in the ChIP assay. […] It can be seen from the above tests that TZ47 can inhibit the AURKB activity and further inhibit the level of AURKB histone substrate H3S10 ph on the promoter of gene E2F2, affecting the expression of gene E2F2.
# The specific steps were described as follows. • a. Detailed steps and conditions for Western blot assay and real-time quantitative PCR test have been described in the above Examples. • b. Chromatin co-immunoprecipitation (ChIP) • 1) In vivo cross-linking of DNA-protein complex
# 2×10^6-7 cells were collected by low-speed centrifugation, resuspended in 20 mL of RPMI 1640 medium, added with 550 μL of a 37% formalin solution in a fuming cupboard to a final concentration of 1% and incubated for 10 min. The system was mixed 2-3 times during the incubation. • 2) Termination of cross-linking
# The cross-linking system was added with 1.35 mL of 2 M glycine (final concentration: 0.1 M), mixed uniformly and incubated for 10 min. […]
# The OD260 value of the supernatant was determined and used to calculate the DNA concentration. […]
compound,measurement,value
c1ccc2c(Cc3[nH]c4ccccc4c3Cc3c[nH]c4ccccc34)c[nH]c2c1 [TZ47],enrichment of histone H3S10 ph near the E2F2 promoter,significantly reduced
